One block for each molecule: values may come before it.
How the values were obtained:
PfPP5 [1] = biological target: T1, PfPP5 (Plasmodium falciparum, UniProt Q8WQR3); assay: […]-phosphohistone dephosphorylation, phosphomolybdate extraction; format: biochemical; settings: pH 7.5, 37°C
T1 sequence (Q8WQR3 1-594): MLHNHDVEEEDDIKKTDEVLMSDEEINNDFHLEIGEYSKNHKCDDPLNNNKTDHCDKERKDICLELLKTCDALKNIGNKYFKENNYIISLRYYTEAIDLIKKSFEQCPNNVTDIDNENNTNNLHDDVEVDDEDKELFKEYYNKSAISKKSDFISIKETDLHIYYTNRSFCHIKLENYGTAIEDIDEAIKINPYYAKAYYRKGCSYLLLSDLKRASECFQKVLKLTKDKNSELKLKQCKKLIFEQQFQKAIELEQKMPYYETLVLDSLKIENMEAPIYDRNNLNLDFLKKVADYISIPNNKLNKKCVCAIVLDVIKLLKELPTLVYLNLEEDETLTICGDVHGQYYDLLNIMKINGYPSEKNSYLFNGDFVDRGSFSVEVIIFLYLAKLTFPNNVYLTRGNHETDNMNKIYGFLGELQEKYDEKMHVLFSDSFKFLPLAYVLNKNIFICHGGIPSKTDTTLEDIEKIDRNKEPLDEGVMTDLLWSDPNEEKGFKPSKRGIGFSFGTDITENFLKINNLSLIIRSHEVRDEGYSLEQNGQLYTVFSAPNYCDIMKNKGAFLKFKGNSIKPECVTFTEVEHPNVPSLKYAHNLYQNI

PfPP5 [2] = biological target: T1, PfPP5; assay: as above; format: biochemical; settings: activator, 32P-phosphohistone, pH 7.5, 37°C

SMILES: CCCCCCCCCCCCCCCCCC(=O)O [stearic acid]
32P-phosphohistone dephosphorylation, phosphomolybdate extraction (PfPP5 [1]): stearic acid, a saturated fatty acid, did not appreciably stimulate PfPP5 activity

fold stimulation of activity (PfPP5 [2]; about 70 μM fatty acid): ~ 3 fold
SMILES: CCCCC/C=C\C/C=C\C/C=C\C/C=C\CCCC(=O)O [arachidonic acid]

fold stimulation of activity (PfPP5 [2]; about 80 μM fatty acid): ~ 3 fold
SMILES: CCCCCCCC/C=C\CCCCCCCC(=O)O [oleic acid]
